Assay results taken from patent US20240208950A1, “COMPOSITIONS AND METHODS FOR TREATMENT OF CERVICAL AND OVARIAN CANCER” (SOUTH DAKOTA BOARD OF REGENTS, priority 2021, published 2024).

Test system: ovarian cancer cell line A2780
Assay: MTT cell viable assay (cytotoxicity and anti-proliferation)
Type: cell-based
Details: Homo sapiens
Experimental: A biological assay was performed to study the potency of ORM-analogs by observing their pharmaceutical effects on living tissue (in vitro) and the effects of these analogs of unknown potency were compared to the effects of the standard (ormeloxifene). An MTT cell viable assay was first conducted to measure the cytotoxicity and anti-proliferation activity of synthesized analogs (Table 2 and FIG. 2).

## COc1ccc2c(c1)OC(C)(C)C(c1ccccc1)C2c1ccc(OCCN2CCCC2)cc1 (stereo not shown) [Ormeloxifene, reference compound]
  IC50: 17.5 µM
